Patent publication US9775831B2, “Combinations comprising biphenyl derivatives for use in the treatment of HCV” (BRISTOL-MYERS SQUIBB COMPANY, priority 2013, dated 2017)

The compounds below were run on genotype-1a variant with glutamine 30 changed to glutamate in the NS5A protein (assay: HCV replicon cell-based assay, NS5A synergy with BMS-790052). Settings: genotype 1a Q→E variant; test compound titrated in combination with NS5A-targeting compound (BMS-790052 fixed at 200 nM).
Description: The NS5A synergistic inhibitory effect of test compounds can be determined using various amounts of an NS5A-targeting compound with titration of a second compound of interest. […] In one embodiment, the HCV genotype strain can be genotype 1a containing a change at amino acid 30 of the NS5A protein consisting of glutamine to glutamate. The test compound can be chosen from compounds listed above or from others present in the literature.

**Q.** With `CC(C)(C)NC(=O)C(c1ncc(-c2ccc(-c3ccc(-c4cnc(C(C(=O)NC(C)(C)C)C(C)(C)C)[nH]4)cc3)cc2)[nH]1)C(C)(C)C` (centres unmarked) [Example B1] as the compound, how does the “Fold Synergistic (1a-QE)” value read?
**A.** >100 Fold

**Q.** With `CC(C)(C)C(C(=O)Nc1cccc(Cl)c1)c1ncc(-c2ccc(-c3ccc(-c4cnc(C(C(=O)Nc5cccc(Cl)c5)C(C)(C)C)[nH]4)cc3)cc2)[nH]1` (centres unmarked) [Example B2] as the compound, how does the “Fold Synergistic (1a-QE)” value read?
**A.** <10 Fold

**Q.** Which “Fold Synergistic (1a-QE)” value does the source give for `CCN(CC)C(=O)C(c1ncc(-c2ccc(-c3ccc(-c4cnc(C(C(=O)N(CC)CC)C(C)(C)C)[nH]4)cc3)cc2)[nH]1)C(C)(C)C` (centres unmarked) [Example B3] here?
**A.** >10 Fold

**Q.** `CC(C)(C)C(C(=O)N1CCCC1)c1ncc(-c2ccc(-c3ccc(-c4cnc(C(C(=O)N5CCCC5)C(C)(C)C)[nH]4)cc3)cc2)[nH]1` (centres unmarked) [Example B4] was tested. Which “Fold Synergistic (1a-QE)” value did it give?
**A.** <10 Fold

**Q.** How did the “Fold Synergistic (1a-QE)” value turn out when `CC(C)(C)C(C(=O)NC1CCCCC1)c1ncc(-c2ccc(-c3ccc(-c4cnc(C(C(=O)NC5CCCCC5)C(C)(C)C)[nH]4)cc3)cc2)[nH]1` (centres unmarked) [Example B5] was run?
**A.** <10 Fold

**Q.** For `COC(=O)[C@@H](NC(=O)C[C@@H](CCC(F)(F)F)c1ncc(-c2ccc(-c3ccc(-c4cnc([C@H](CCC(F)(F)F)CC(=O)N[C@H](C(=O)OC)C(C)C)[nH]4)cc3)cc2)[nH]1)C(C)C` [Example MD-1], which “Fold Synergistic (1a-QE)” value is on record?
**A.** >10 Fold

**Q.** For `O=C(C[C@@H](CCC(F)(F)F)c1ncc(-c2ccc(-c3ccc(-c4cnc([C@H](CCC(F)(F)F)CC(=O)N5CCC(F)CC5)[nH]4)cc3)cc2)[nH]1)N1CCC(F)CC1` [Example MD-2], which “Fold Synergistic (1a-QE)” value is on record?
**A.** >100 Fold

**Q.** How did the “Fold Synergistic (1a-QE)” value turn out when `CC(C)CNC(=O)C[C@@H](CCC(F)(F)F)c1ncc(-c2ccc(-c3ccc(-c4cnc([C@H](CCC(F)(F)F)CC(=O)NCC(C)C)[nH]4)cc3)cc2)[nH]1` [Example MD-3] was run?
**A.** >10 Fold

**Q.** For `CC(C)CNC(=O)C[C@@H](CCC(F)(F)F)c1ncc(-c2ccc(-c3ccc(-c4cnc([C@H](CCC(F)(F)F)CC(=O)O)[nH]4)cc3)cc2)[nH]1` [Example MD-4], which “Fold Synergistic (1a-QE)” value is on record?
**A.** <10 Fold

**Q.** `CCO[C@H](CC(=O)N(NC(=O)OC)C(C)C)c1ncc(-c2ccc(-c3ccc(-c4cnc([C@@H](CC(=O)N(NC(=O)OC)C(C)C)OCC)[nH]4)cc3)cc2)[nH]1` [Example MD-5] was tested. Which “Fold Synergistic (1a-QE)” value did it give?
**A.** >10 Fold

**Q.** How did the “Fold Synergistic (1a-QE)” value turn out when `CCO[C@H](CC(=O)NCC(C)C)c1nc(-c2ccc(-c3ccc(-c4c[nH]c([C@@H](CC(=O)NCC(C)C)OCC)n4)cc3)cc2)c[nH]1` [Example MD-6] was run?
**A.** >10 Fold

**Q.** Which “Fold Synergistic (1a-QE)” value does the source give for `CC(C)CNC(=O)[C@@H]1OC(C)(C)O[C@H]1c1ncc(-c2ccc(-c3ccc(-c4cnc([C@@H]5OC(C)(C)O[C@H]5C(=O)NCC(C)C)[nH]4)cc3)cc2)[nH]1` [Example MD-7] here?
**A.** <10 Fold

**Q.** `CC1(C)O[C@@H](C(N)=O)[C@H](c2ncc(-c3ccc(-c4ccc(-c5cnc([C@@H]6OC(C)(C)O[C@H]6C(N)=O)[nH]5)cc4)cc3)[nH]2)O1` [Example MD-9] was tested. Which “Fold Synergistic (1a-QE)” value did it give?
**A.** <10 Fold

**Q.** How did the “Fold Synergistic (1a-QE)” value turn out when `CC(C)CNC(=O)C[C@@H](C)c1nc(-c2ccc(-c3ccc(-c4c[nH]c([C@H](C)CC(=O)NCC(C)C)n4)cc3)cc2)c[nH]1` [Example MD-11] was run?
**A.** >100 Fold

**Q.** How did the “Fold Synergistic (1a-QE)” value turn out when `C[C@H](CC(=O)N1CCC(F)(F)CC1)c1nc(-c2ccc(-c3ccc(-c4c[nH]c([C@H](C)CC(=O)N5CCC(F)(F)CC5)n4)cc3)cc2)c[nH]1` [Example MD-13] was run?
**A.** >100 Fold

**Q.** With `CCOC(=O)[C@@H]1OCO[C@H]1c1ncc(-c2ccc(-c3ccc(-c4cnc([C@@H]5OCO[C@H]5C(=O)OCC)[nH]4)cc3)cc2)[nH]1` [Example MD-15] as the compound, how does the “Fold Synergistic (1a-QE)” value read?
**A.** <10 Fold

**Q.** For `CC(C)[C@H](CC(=O)NCC(C)(C)C)c1ncc(-c2ccc(-c3ccc(-c4cnc([C@@H](CC(=O)NCC(C)(C)C)C(C)C)[nH]4)cc3)cc2)[nH]1` [Example MD-18], which “Fold Synergistic (1a-QE)” value is on record?
**A.** >10 Fold

**Q.** For `CC(C)[C@H](CC(=O)NCc1ccccc1Cl)c1ncc(-c2ccc(-c3ccc(-c4cnc([C@@H](CC(=O)NCc5ccccc5Cl)C(C)C)[nH]4)cc3)cc2)[nH]1` [Example MD-19], which “Fold Synergistic (1a-QE)” value is on record?
**A.** >100 Fold

**Q.** How did the “Fold Synergistic (1a-QE)” value turn out when `CCOCC1(CNC(=O)C[C@H](c2ncc(-c3ccc(-c4ccc(-c5cnc([C@@H](CC(=O)NCC6(COCC)CC6)C(C)C)[nH]5)cc4)cc3)[nH]2)C(C)C)CC1` [Example MD-20] was run?
**A.** >10 Fold

**Q.** Which “Fold Synergistic (1a-QE)” value does the source give for `C[C@@H]1CN(C(=O)C[C@@H](C)c2ncc(-c3ccc(-c4ccc(-c5cnc([C@H](C)CC(=O)N6C[C@@H](C)O[C@@H](C)C6)[nH]5)cc4)cc3)[nH]2)C[C@H](C)O1` [Example MD-36] here?
**A.** >10 Fold

**Q.** With `C[C@H](CC(=O)NCC1CC1)c1ncc(-c2ccc(-c3ccc(-c4cnc([C@H](C)CC(=O)NCC5CC5)[nH]4)cc3)cc2)[nH]1` [Example MD-38] as the compound, how does the “Fold Synergistic (1a-QE)” value read?
**A.** >100 Fold

**Q.** How did the “Fold Synergistic (1a-QE)” value turn out when `CC(C)[C@H](CC(=O)NCC(C)(C)O)c1ncc(-c2ccc(-c3ccc(-c4cnc([C@@H](CC(=O)NCC(C)(C)O)C(C)C)[nH]4)cc3)cc2)[nH]1` [Example MD-41] was run?
**A.** >10 Fold

**Q.** For `CC(C)(C)CNC(=O)C[C@@H](CCC(F)(F)F)c1ncc(-c2ccc(-c3ccc(-c4cnc([C@H](CCC(F)(F)F)CC(=O)NCC(C)(C)C)[nH]4)cc3)cc2)[nH]1` [Example MD-55], which “Fold Synergistic (1a-QE)” value is on record?
**A.** <10 Fold

**Q.** For `CC(C)N(C(=O)C[C@@H](CCC(F)(F)F)c1ncc(-c2ccc(-c3ccc(-c4cnc([C@H](CCC(F)(F)F)CC(=O)N(C(C)C)C5CC5)[nH]4)cc3)cc2)[nH]1)C1CC1` [Example MD-56], which “Fold Synergistic (1a-QE)” value is on record?
**A.** <10 Fold

**Q.** Which “Fold Synergistic (1a-QE)” value does the source give for `CC(C)NC(=O)C[C@@H](CCC(F)(F)F)c1ncc(-c2ccc(-c3ccc(-c4cnc([C@H](CCC(F)(F)F)CC(=O)N(C(C)C)C5CC5)[nH]4)cc3)cc2)[nH]1` [Example MD-57] here?
**A.** >10 Fold

**Q.** How did the “Fold Synergistic (1a-QE)” value turn out when `COC(=O)NN(C(=O)[C@@H]1OC(C)(C)O[C@H]1c1ncc(-c2ccc(-c3ccc(-c4cnc([C@@H]5OC(C)(C)O[C@H]5C(=O)N(NC(=O)OC)C(C)C)[nH]4)cc3)cc2)[nH]1)C(C)C` [MD-8] was run?
**A.** <10 Fold

**Q.** How did the “Fold Synergistic (1a-QE)” value turn out when `CC1(C)O[C@@H](C(N)=O)[C@H](c2ncc(-c3ccc(-c4ccc(-c5coc([C@@H]6OC(C)(C)O[C@H]6C(N)=O)n5)cc4)cc3)[nH]2)O1` [MD-10] was run?
**A.** <10 Fold

**Q.** How did the “Fold Synergistic (1a-QE)” value turn out when `COC(=O)NN(C(=O)C[C@@H](C)c1nc(-c2ccc(-c3ccc(-c4c[nH]c([C@H](C)CC(=O)N(NC(=O)OC)C(C)C)n4)cc3)cc2)c[nH]1)C(C)C` [MD-12] was run?
**A.** >10 Fold

**Q.** With `CC(C)CNC(=O)[C@@H]1OCO[C@H]1c1ncc(-c2ccc(-c3ccc(-c4cnc([C@@H]5OCO[C@H]5C(=O)NCC(C)C)[nH]4)cc3)cc2)[nH]1` [MD-14] as the compound, how does the “Fold Synergistic (1a-QE)” value read?
**A.** <10 Fold

**Q.** For `COC(=O)NN(C(=O)[C@@H]1OCO[C@H]1c1ncc(-c2ccc(-c3ccc(-c4cnc([C@@H]5OCO[C@H]5C(=O)N(NC(=O)OC)C(C)C)[nH]4)cc3)cc2)[nH]1)C(C)C` [MD-17], which “Fold Synergistic (1a-QE)” value is on record?
**A.** <10 Fold

**Q.** For `CC(C)[C@H](CC(=O)NC[C@@H]1CC[C@H]2C[C@@H]1C2(C)C)c1ncc(-c2ccc(-c3ccc(-c4cnc([C@@H](CC(=O)NC[C@@H]5CC[C@H]6C[C@@H]5C6(C)C)C(C)C)[nH]4)cc3)cc2)[nH]1` [MD-21], which “Fold Synergistic (1a-QE)” value is on record?
**A.** >100 Fold

**Q.** `CC(C)[C@H](CC(=O)NCC12CC3CC(CC(C3)C1)C2)c1ncc(-c2ccc(-c3ccc(-c4cnc([C@@H](CC(=O)NCC56CC7CC(CC(C7)C5)C6)C(C)C)[nH]4)cc3)cc2)[nH]1` [MD-22] was tested. Which “Fold Synergistic (1a-QE)” value did it give?
**A.** >100 Fold

**Q.** `CC(C)[C@H](CC(=O)NCC1(c2ccccc2)CCCCC1)c1ncc(-c2ccc(-c3ccc(-c4cnc([C@@H](CC(=O)NCC5(c6ccccc6)CCCCC5)C(C)C)[nH]4)cc3)cc2)[nH]1` [MD-23] was tested. Which “Fold Synergistic (1a-QE)” value did it give?
**A.** >100 Fold

**Q.** For `CCN(CC)C(=O)CN(C)C(=O)C[C@H](c1ncc(-c2ccc(-c3ccc(-c4cnc([C@@H](CC(=O)N(C)CC(=O)N(CC)CC)C(C)C)[nH]4)cc3)cc2)[nH]1)C(C)C` [MD-24], which “Fold Synergistic (1a-QE)” value is on record?
**A.** >10 Fold

**Q.** With `CC(C)[C@H](CC(=O)N(C)CC(=O)NC(C)(C)C)c1ncc(-c2ccc(-c3ccc(-c4cnc([C@@H](CC(=O)N(C)CC(=O)NC(C)(C)C)C(C)C)[nH]4)cc3)cc2)[nH]1` [MD-25] as the compound, how does the “Fold Synergistic (1a-QE)” value read?
**A.** >10 Fold

**Q.** For `CCCCN(C(=O)C[C@H](c1ncc(-c2ccc(-c3ccc(-c4cnc([C@@H](CC(=O)N(CCCC)C(C)C)C(C)C)[nH]4)cc3)cc2)[nH]1)C(C)C)C(C)C` [MD-26], which “Fold Synergistic (1a-QE)” value is on record?
**A.** >10 Fold

**Q.** For `CC(C)[C@H](CC(=O)N(CCN1CCOC1=O)CC(C)(C)C)c1ncc(-c2ccc(-c3ccc(-c4cnc([C@@H](CC(=O)N(CCN5CCOC5=O)CC(C)(C)C)C(C)C)[nH]4)cc3)cc2)[nH]1` [MD-27], which “Fold Synergistic (1a-QE)” value is on record?
**A.** >10 Fold

**Q.** For `CC(C)[C@H](CC(=O)NCC(C)(c1ccccc1)c1ccccc1)c1ncc(-c2ccc(-c3ccc(-c4cnc([C@@H](CC(=O)NCC(C)(c5ccccc5)c5ccccc5)C(C)C)[nH]4)cc3)cc2)[nH]1` [MD-28], which “Fold Synergistic (1a-QE)” value is on record?
**A.** >100 Fold

**Q.** With `CC(C)[C@H](CC(=O)N1CCN(c2ccccc2)C(=O)C1)c1ncc(-c2ccc(-c3ccc(-c4cnc([C@@H](CC(=O)N5CCN(c6ccccc6)C(=O)C5)C(C)C)[nH]4)cc3)cc2)[nH]1` [MD-29] as the compound, how does the “Fold Synergistic (1a-QE)” value read?
**A.** <10 Fold

**Q.** For `CC(C)[C@H](CC(=O)N(C)CC(=O)N(C)C)c1ncc(-c2ccc(-c3ccc(-c4cnc([C@@H](CC(=O)N(C)CC(=O)N(C)C)C(C)C)[nH]4)cc3)cc2)[nH]1` [MD-30], which “Fold Synergistic (1a-QE)” value is on record?
**A.** <10 Fold

**Q.** `CC(C)[C@H](CC(=O)NC1(C#N)CC1)c1ncc(-c2ccc(-c3ccc(-c4cnc([C@@H](CC(=O)NC5(C#N)CC5)C(C)C)[nH]4)cc3)cc2)[nH]1` [MD-31] was tested. Which “Fold Synergistic (1a-QE)” value did it give?
**A.** <10 Fold
